In ChEMBL document CHEMBL4118200, “Boronic acid inhibitors of the class A β-lactamase KPC-2” (Bioorg Med Chem, 2018):
In brackets after ≈: the same amount, converted by molar mass.

Experiments:
Klebsiella pneumoniae = conditions: isolate 342
[1] = biological target: Beta-lactamase (Escherichia coli) (UniProt Q7BB82); conditions: G69
[2] = biological target: Metallo-beta-lactamase type 2 (Klebsiella pneumoniae) (UniProt C7C422); conditions: NCTC 13443
Escherichia coli = assay: microbe, parasite or virus in culture; type: functional; conditions: NCTC 10118, 16 h
[3] = Inhibition of bacterial AmpC; set-up: species or system Bacteria

Sequence of Beta-lactamase (Escherichia coli) (Q7BB82 as listed by the source): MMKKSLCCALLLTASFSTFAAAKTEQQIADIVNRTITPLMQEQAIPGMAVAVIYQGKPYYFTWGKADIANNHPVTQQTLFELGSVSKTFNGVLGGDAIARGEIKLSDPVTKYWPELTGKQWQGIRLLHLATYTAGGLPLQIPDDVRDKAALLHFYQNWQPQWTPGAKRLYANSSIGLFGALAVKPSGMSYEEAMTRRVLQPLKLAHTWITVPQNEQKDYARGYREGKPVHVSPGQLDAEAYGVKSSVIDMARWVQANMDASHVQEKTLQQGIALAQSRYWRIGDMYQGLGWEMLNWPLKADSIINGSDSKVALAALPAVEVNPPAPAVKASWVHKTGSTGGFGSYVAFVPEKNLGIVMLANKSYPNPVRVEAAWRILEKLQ
Sequence of Metallo-beta-lactamase type 2 (Klebsiella pneumoniae) (C7C422 whole entry): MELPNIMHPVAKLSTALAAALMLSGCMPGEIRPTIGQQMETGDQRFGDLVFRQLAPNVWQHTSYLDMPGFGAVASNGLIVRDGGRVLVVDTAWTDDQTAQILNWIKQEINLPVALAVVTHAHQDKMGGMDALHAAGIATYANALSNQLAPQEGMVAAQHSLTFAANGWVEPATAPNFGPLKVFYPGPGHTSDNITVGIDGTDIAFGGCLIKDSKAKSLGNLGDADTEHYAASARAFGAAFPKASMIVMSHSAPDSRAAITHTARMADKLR
Description for Bacteria: Inhibition of bacterial beta-lactamase KPC2 expressed in Escherichia coli BL21(DE3) assessed as cefotaxime MIC at 50 ug/ml incubated for 16 hrs by broth microdilution method (Rvb = 16 ug/ml)

SMILES: OB(O)c1ccc(Cn2cc(-c3ccccc3)nn2)cc1
- MIC (Bacteria): < 0.03 µg/mL
- MIC (Klebsiella pneumoniae): > 32 µg/mL
- MIC [1]: > 32 µg/mL
- MIC [2]: > 32 µg/mL
- MIC (Escherichia coli): ≤ 0.03 µg/mL

SMILES: [N-]=[N+]=NCc1ccc(B(O)O)cc1
- MIC (Bacteria): < 0.03 µg/mL
- MIC (Klebsiella pneumoniae): > 32 µg/mL
- MIC [1]: > 32 µg/mL
- MIC [2]: > 32 µg/mL
- MIC (Escherichia coli): ≤ 0.03 µg/mL

SMILES: OB(O)c1ccc(Cn2cc(-c3cccs3)nn2)cc1
- MIC (Bacteria): 0.12 µg/mL (≈ 0.421 µM)
- MIC (Klebsiella pneumoniae): > 32 µg/mL
- MIC [1]: > 32 µg/mL
- MIC [2]: > 32 µg/mL
- MIC (Escherichia coli): ≤ 0.03 µg/mL

SMILES: [N-]=[N+]=NCc1cccc(B(O)O)c1
- MIC (Bacteria): < 0.03 µg/mL
- MIC (Klebsiella pneumoniae): > 32 µg/mL
- MIC [1]: 8 µg/mL (≈ 45.2 µM)
- MIC [2]: > 32 µg/mL
- MIC (Escherichia coli): ≤ 0.03 µg/mL

SMILES: COc1ccc(-c2cn(Cc3ccc(B(O)O)cc3)nn2)cc1
- MIC (Bacteria): 0.06 µg/mL (≈ 0.194 µM)
- MIC (Klebsiella pneumoniae): > 32 µg/mL
- MIC [1]: > 32 µg/mL
- MIC [2]: > 32 µg/mL
- MIC (Escherichia coli): ≤ 0.03 µg/mL

SMILES: OB(O)c1cccc(Cn2cc(-c3cccs3)nn2)c1
- MIC (Bacteria): < 0.03 µg/mL
- MIC (Klebsiella pneumoniae): > 32 µg/mL
- MIC [1]: > 32 µg/mL
- MIC [2]: > 32 µg/mL
- MIC (Escherichia coli): ≤ 0.03 µg/mL

SMILES: OB(O)c1cccc(Cn2cc(-c3ccccc3)nn2)c1
- MIC (Bacteria): < 0.03 µg/mL
- MIC (Klebsiella pneumoniae): > 32 µg/mL
- MIC [1]: > 32 µg/mL
- MIC [2]: > 32 µg/mL
- MIC (Escherichia coli): ≤ 0.03 µg/mL

SMILES: OB(O)c1ccc(Cn2cc(-c3ccccn3)nn2)cc1
- MIC (Bacteria): < 0.03 µg/mL
- MIC (Klebsiella pneumoniae): > 32 µg/mL
- MIC [1]: > 32 µg/mL
- MIC [2]: > 32 µg/mL
- MIC (Escherichia coli): ≤ 0.03 µg/mL

SMILES: OB(O)c1ccc(Cn2cc(-c3ccsc3)nn2)cc1
- MIC (Bacteria): < 0.03 µg/mL
- MIC (Klebsiella pneumoniae): > 32 µg/mL
- MIC [1]: > 32 µg/mL
- MIC [2]: > 32 µg/mL
- MIC (Escherichia coli): ≤ 0.03 µg/mL

SMILES: O=C(Cc1cccs1)N[C@@H](B(O)O)c1ccccc1
- Ki [3]: 35 nM

SMILES: OB(O)c1cccc(Cn2cc(-c3ccccn3)nn2)c1
- MIC (Bacteria): < 0.03 µg/mL
- MIC (Klebsiella pneumoniae): > 32 µg/mL
- MIC [1]: > 32 µg/mL
- MIC [2]: > 32 µg/mL
- MIC (Escherichia coli): ≤ 0.03 µg/mL

SMILES: Nc1cccc(B(O)O)c1
- Ki [3]: 7100 nM

SMILES: OB(O)c1ccc(Cn2cc(-c3cccnc3)nn2)cc1
- MIC (Bacteria): < 0.03 µg/mL
- MIC (Klebsiella pneumoniae): > 32 µg/mL
- MIC [1]: > 32 µg/mL
- MIC [2]: > 32 µg/mL
- MIC (Escherichia coli): ≤ 0.03 µg/mL

SMILES: OB(O)c1cccc(Cn2cc(-c3cccnc3)nn2)c1
- MIC (Bacteria): < 0.03 µg/mL
- MIC (Klebsiella pneumoniae): > 32 µg/mL
- MIC [1]: > 32 µg/mL
- MIC [2]: > 32 µg/mL
- MIC (Escherichia coli): ≤ 0.03 µg/mL

SMILES: OB(O)c1cccc(Cn2cc(-c3ccsc3)nn2)c1
- MIC (Bacteria): < 0.03 µg/mL
- MIC (Klebsiella pneumoniae): > 32 µg/mL
- MIC [1]: > 32 µg/mL
- MIC [2]: > 32 µg/mL
- MIC (Escherichia coli): ≤ 0.03 µg/mL

SMILES: OB(O)c1cccc(/N=N/c2cc3ccccc3cc2O)c1
- Ki [3]: 300 nM

SMILES: COc1ccc(-c2cn(Cc3cccc(B(O)O)c3)nn2)cc1
- MIC (Bacteria): 0.12 µg/mL (≈ 0.388 µM)
- MIC (Klebsiella pneumoniae): > 32 µg/mL
- MIC [1]: 32 µg/mL (≈ 104 µM)
- MIC [2]: > 32 µg/mL
- MIC (Escherichia coli): ≤ 0.03 µg/mL

SMILES: O=C(O)C/C=C/c1c(B(O)O)sc2ccccc12
- Ki [3]: 90 nM
